Earlier results, collected in patent US20020090642A1, “METHODS FOR DETERMINING THE PROGNOSIS OF BREAST CANCER USING ANTIBODIES SPECIFIC FOR THYMIDYLATE SYNTHASE” (priority 1995, published 2002).

System: TS
Conditions: 24 hours post-fluorouracil therapy, tumor biopsy samples

SMILES: O=c1[nH]cc(F)c(=O)[nH]1 [fluorouracil]
- increase in TS: 2- to 6 fold
